{"source": "patent US20200131227A1", "about": "“POLYPEPTIDE WITH TUMOUR BINDING ACTIVITY” (RUPRECHT-KARLS-UNIVERSITÄT HEIDELBERG, priority 2017, published 2020)", "molecules": {"B1": {"name": "^177Lu-DOTA-SFLAP3 (peptide)", "peptide": "{DOTA}-GRCTGRGDLGRLCYPD", "modifications": "disulfide 3-13; also: DOTA loaded with 177Lu (or peptide 125I-labelled in competition assay)", "notes": "DOTA conjugate of SFLAP3"}, "B2": {"name": "^177Lu-DOTA-SFLAP3-trimer (Formula (XXVII)) (peptide)", "chain": "{DOTA}-GSGSKGSGSKGSGSK", "peptide": "GRCTGRGDLGRLCYPD", "modifications": "disulfide II:3-II:13; also: 177Lu chelated by DOTA, three SFLAP3 units attached by oxime ligation, aminooxy-modified, sites not given here, only one SFLAP3 unit listed as chain", "notes": "Branched trimer; the exact connectivity stands only in the drawing of formula (XXVII), which is not readable here; also called trimerized peptide"}, "B3": {"name": "^177Lu-DOTA-SFLAP3K (peptide)", "peptide": "{DOTA}-GRCTGRGDLGRLKCYPD", "modifications": "disulfide 3-14; also: DOTA loaded with 177Lu (or peptide 125I-labelled in competition assay)", "notes": "DOTA conjugate of SFLAP3K"}}, "key": {"Capan-2 cells": {"test_system": "Capan-2 cells", "test": "In vitro binding, internalization and efflux on Capan-2 cells", "format": "cell-based, human", "description": "For in vitro binding Studies, 4*10^5-6*10^5 cells were seeded in 6 well plates and cultivated for 24 to 48 hours. At the start of the experiment the medium was replaced with 1 ml serum free medium with a definite amount of radioactive labeled peptide per well. For normal binding assays the cells were incubated for 60 min at 37° C. and afterwards washed 3 times with PBS (pH 7.4). Cells were lysed with 2 times 0.5 ml of a 0.3 M NaOH +0.2% SDS lysis-buffer. Competition assays were performed with ^125I-labeled and unlabelled (10^−6 to 10^−11M) peptide and incubated at the same time for 60 min.\nCells were incubated for 10 to 240 min with ^177Lu-labelled peptide in internalization assays. After the washing steps, the cells were incubated with 1 ml glycine-HCl (1 M, pH 2.2) buffer for 10 min to remove surface bound peptide. Prior to the lyses the cells were washed again. Values are given as percentage of applied dose per 10^6 cells.\nThe efflux was tested with ^177Lu-labeled peptides. After 60 min incubation the radioactive medium was removed and 1 ml fresh serum-free medium was added. After additional incubation of 60, 120 or 240 min, cell bound activity was measured."}, "carcinoma cell lines": {"test_system": "carcinoma cell lines", "test": "In vitro binding of radiolabeled peptides to several carcinoma cell lines", "format": "cell-based, human", "settings": "HNO97, HNO399, HNO223, HNO210, HNO199; 60 min", "description": "(§1) For binding studies, 2.5×10^5 to 4×10^5 cells were seeded in 6-well plates and cultivated for 48 hours. Cells were incubated for 60 min with 1 mL serum-free medium containing the ^125I-labeled peptide (see above). For competition experiments, cells were simultaneously exposed to unlabeled (10^-4 M to 10^-10 M) and ^125I-labeled peptides. After three washing steps with PBS (pH 7.4) the cells were lysed with 0.5 mL of 0.3 M NaOH. Experiments concerning the internalization, kinetics and efflux were additionally performed with ^177Lu-DOTA-SFITGv6. To evaluate kinetics and efflux HNO97 cells were incubated for different time intervals (10 min to 480 min) and 60 min, respectively, with ^177Lu-DOTA-SFITGv6 and lysed as described. To continue with the efflux experiment radioactive medium was replaced by non-radioactive medium and cells were incubated again for 60 to 240 min before measuring radioactivity of the cell lysates and the medium. For internalization experiments the cells were exposed to ^177Lu-DOTA-SFITGv6 for different time intervals (10 to 240 min) at 37° C. and 4° C. After three washing steps with PBS the cells were incubated with 1 mL of glycine-HCl 50 mmol/L in PBS (pH 2.8) for 10 min at RT to remove the surface bound activity. Then, cells were washed with 3 mL of ice-cold PBS and lysed as described. Radioactivity was determined in a gamma counter and calculated as percentage of the applied dose per 1×10^6 cells. Experiments were performed three times, and three repetitions per independent experiment were acquired.\n(§2) For the assessment of the peptide binding capacity in vitro, 2.5-4×10^5 cells were seeded into 6-well plates and cultivated for 48 h. ^125I-labeled peptide resuspended in 1 mL serum-free medium was added and incubated for either 10 min or 60 min with or without different concentrations of unlabeled peptide (10^−4-10^−11 M). Afterwards, cell monolayers were washed three times with 1 mL phosphate-buffered saline (pH 7.4) to remove unbound peptide and the cells were harvested with 1.4 mL lysis buffer (0.3 M NaOH). To evaluate kinetic properties the cells were exposed to ^177Lu-DOTA-labeled peptides for 10, 30, 60, 120, and 240 min, respectively, and lysed as described. For the efflux experiments the cells were incubated with ^177Lu-DOTA-labeled peptides for 60 min. Thereafter, radioactive medium was replaced by non-radioactive medium and cell monolayers were incubated for additional 60, 120, and 240 min and afterwards lysed as described earlier. The internalization was assessed after exposure of the cells to ^177Lu-DOTA-labeled peptides for 10, 30, 60, 120, and 240 min at 37° C. Unspecifically bound peptide was removed from the surface by incubation with 1 M glycine-HCl solution (pH 2.2) for 10 min. The monolayer cell was rinsed with PBS and cells were lysed as described before. Radioactivity was determined in a y-counter and calculated as percentage of the applied dose per 1×10^6 cells. Experiments were performed three times, and three repetitions per independent experiment were acquired."}, "HNO97 cells [1]": {"test_system": "HNO97 cells", "format": "binding, human", "settings": "48 h", "description": "as §1"}, "HNO97 cells [2]": {"test_system": "HNO97 cells", "test": "In vitro binding, kinetics, internalization and efflux on HNO97 cells", "format": "cell-based, human", "settings": "continuously increasing, within 480 min", "description": "as §1, §2"}, "[3]": {"test_system": "HNSCC tumor sections (HNO97 xenograft, HNO444, HNO399, HNO210)", "test": "Histochemical peptide staining of HNSCC tumor cryosections", "design": "species or system human", "settings": "biotinylated PEG(12)-peptide, 10^-5 M", "description": "Staining with the biotinylated PEG(12)-SFITGv6 peptide was performed on acetone-fixed cryosections (5 μm) of tumor tissues after blocking of unspecific binding using the Avidin/Biotin Blocking Kit (SP-2001, Vector Laboratories). A stock solution of the lyophilized peptide was prepared by dilution in 5% aqueous DMSO. Slices were incubated overnight at 4° C. with 10^-5 M peptide concentration in antibody diluent (DAKO). Detection of bound peptide was carried out with the Vectastain Elite ABC Kit (PK-6100, Vector Laboratories) according to manufacturer's protocol. Peptide specificity was ensured by a scrambled (GRD) PEG(12)-SFITGv6 derivate, the somatostatin receptor ligand DOTATOC and negative controls (without peptide or primary antibody) Staining results were assessed by bright field microscopy (BX50) with the SC30 camera and the cell Sense software (all Olympus).\nImmunohistochemical stainings were performed by use of the biotinylated PEG(12)-labled peptides (SFITGv6, SFLAP3) on 5 μm acetone-fixed tumor tissue cryosections. To prevent background staining we initially applied the Avidin/Biotin Blocking Kit (SP-2001, Vector Laboratories). The lyophilized peptides were diluted in 5% aqueous DMSO preparing a 1 mM Stock solution. The HNSCC cryosections were incubated with 10^−5 M peptide concentration in antibody diluent (DAKO) at 4° C. overnight. To detect bound peptide the Vectastain Elite ABC Kit (PK-6100, Vector Laboratories) was applied according to manufacturer's protocol. Peptide binding specificity was ensured by use of a peptide derivate (scrambled control) and negative controls (without peptide). Due to instability of the peptide binding staining results were assessed on the same day by bright field microscopy (BX50) with the SC30 camera and the cell Sense software (all Olympus)."}, "[4]": {"molecular_target": "T1, integrin αvβ6 (ITGαvβ6) as expressed on human carcinoma cell lines and tumor tissue sections (human, UniProt P06756 31-1048; P18564 22-788)", "T1 construct": "whole, on cells; also called ITGAVB6; ITGαvβ6-expressing HNO97 cells", "T1 sequence (P06756 31-1048, chain 1 of 2)": "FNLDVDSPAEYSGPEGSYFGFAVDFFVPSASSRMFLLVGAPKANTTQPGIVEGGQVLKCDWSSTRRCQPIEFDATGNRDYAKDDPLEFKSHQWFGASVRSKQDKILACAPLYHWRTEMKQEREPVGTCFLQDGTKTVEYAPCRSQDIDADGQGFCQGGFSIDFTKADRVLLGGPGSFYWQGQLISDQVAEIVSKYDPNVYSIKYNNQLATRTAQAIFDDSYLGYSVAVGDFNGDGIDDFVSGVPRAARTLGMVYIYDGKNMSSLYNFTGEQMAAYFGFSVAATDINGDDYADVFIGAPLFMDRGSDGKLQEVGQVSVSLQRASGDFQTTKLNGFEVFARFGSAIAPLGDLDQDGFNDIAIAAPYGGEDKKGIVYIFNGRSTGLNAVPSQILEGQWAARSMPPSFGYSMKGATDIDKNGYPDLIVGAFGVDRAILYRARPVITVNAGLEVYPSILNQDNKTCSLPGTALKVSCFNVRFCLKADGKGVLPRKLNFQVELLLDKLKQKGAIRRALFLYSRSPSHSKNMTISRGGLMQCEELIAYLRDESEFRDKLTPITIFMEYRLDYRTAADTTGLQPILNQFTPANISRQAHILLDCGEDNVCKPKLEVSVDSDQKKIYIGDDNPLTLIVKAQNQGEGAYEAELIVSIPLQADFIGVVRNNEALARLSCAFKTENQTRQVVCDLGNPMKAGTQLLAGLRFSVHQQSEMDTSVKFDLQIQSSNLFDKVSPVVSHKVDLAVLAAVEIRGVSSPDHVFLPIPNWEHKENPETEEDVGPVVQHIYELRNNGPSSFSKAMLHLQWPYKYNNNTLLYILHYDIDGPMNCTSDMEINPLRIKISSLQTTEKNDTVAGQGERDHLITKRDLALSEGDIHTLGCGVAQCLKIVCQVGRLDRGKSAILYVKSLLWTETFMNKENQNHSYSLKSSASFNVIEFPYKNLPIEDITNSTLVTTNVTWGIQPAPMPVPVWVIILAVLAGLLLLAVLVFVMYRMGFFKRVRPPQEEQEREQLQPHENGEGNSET", "T1 sequence (P18564 22-788, chain 2 of 2)": "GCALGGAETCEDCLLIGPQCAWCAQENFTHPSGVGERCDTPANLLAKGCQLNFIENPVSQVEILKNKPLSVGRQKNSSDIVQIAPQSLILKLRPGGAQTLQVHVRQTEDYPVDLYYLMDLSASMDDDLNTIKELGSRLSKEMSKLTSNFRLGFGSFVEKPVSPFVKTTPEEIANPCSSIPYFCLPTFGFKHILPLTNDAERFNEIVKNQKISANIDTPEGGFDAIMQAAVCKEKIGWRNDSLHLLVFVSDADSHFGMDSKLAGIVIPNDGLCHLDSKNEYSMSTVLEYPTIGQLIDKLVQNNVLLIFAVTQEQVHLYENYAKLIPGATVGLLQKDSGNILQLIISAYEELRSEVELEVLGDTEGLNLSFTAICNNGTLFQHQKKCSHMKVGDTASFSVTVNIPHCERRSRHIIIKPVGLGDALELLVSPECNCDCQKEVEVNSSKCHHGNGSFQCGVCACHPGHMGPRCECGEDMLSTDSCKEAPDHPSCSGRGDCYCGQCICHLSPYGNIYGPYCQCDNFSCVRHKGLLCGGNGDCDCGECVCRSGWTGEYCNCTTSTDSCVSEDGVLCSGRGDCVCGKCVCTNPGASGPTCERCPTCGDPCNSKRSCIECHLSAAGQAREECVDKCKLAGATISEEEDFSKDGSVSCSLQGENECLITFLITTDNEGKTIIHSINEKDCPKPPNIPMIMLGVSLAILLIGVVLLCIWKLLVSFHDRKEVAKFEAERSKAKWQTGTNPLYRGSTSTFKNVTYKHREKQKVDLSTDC", "test": "unlabelled peptide competing with the 125I-labelled peptide on Capan-2 cells, 60 min"}}, "note": "Where a SMILES comes first, the peptide text is derived from it. Bridges are numbered along the chain shown (N, C = ends). Roman numbers before positions name the chains, in order. Where no end group is shown, it is not given here. The star is where a group is joined. DOTA = O=C(O)CN1CCN(CC(=O)O)CCN(CC(=O)*)CCN(CC(=O)O)CC1", "data": [{"molecule": "H2N-G-R-C1-T-G-R-G-D-L-G-R-L-K-C2-Y-P-D-COOH (H-GRCTGRGDLGRLKCYPD-OH; disulfide 3-14; SMILES CC(C)C[C@@H]1NC(=O)[C@H](CC(=O)O)NC(=O)CNC(=O)[C@H](CCCNC(=N)N)NC(=O)CNC(=O)[C@H]([C@@H](C)O)NC(=O)[C@@H](NC(=O)[C@H](CCCNC(=N)N)NC(=O)CN)CSSC[C@@H](C(=O)N[C@@H](Cc2ccc(O)cc2)C(=O)N2CCC[C@H]2C(=O)N[C@@H](CC(=O)O)C(=O)O)NC(=O)[C@H](CCCCN)NC(=O)[C@H](CC(C)C)NC(=O)[C@H](CCCNC(=N)N)NC(=O)CNC1=O) [SFLAP3K]", "values": [{"measurement": "cellular uptake of ^125I-labeled variant compared with SFLAP3", "setting": "Capan-2 cells; different pancreatic carcinoma cell lines (FIG. 25D)", "result": "increased cellular uptake"}]}, {"molecule": "SFLAP1: SFTI derivate with grafted LAP1 octamer RRGDLAFI (GRCTRRGDLAFICYPD; disulfide 3-13 (inferred); also: 125I on the tyrosine in labelled form)", "values": [{"measurement": "binding capacity of ^125I-labeled peptide across HNSCC cell lines", "setting": "carcinoma cell lines", "result": "4.1-12.1%"}]}, {"molecule": "CC(C)C[C@H](NC(=O)[C@H](CC(=O)O)NC(=O)CNC(=O)[C@H](CCCNC(=N)N)NC(=O)[C@@H]1CCCN1C(=O)[C@@H](N)CO)C(=O)N[C@@H](C)C(=O)N[C@H](C(=O)N[C@@H](CC(C)C)C(=O)NCC(=O)N[C@@H](Cc1c[nH]cn1)C(=O)N[C@@H](CCCCN)C(=O)N[C@@H](Cc1ccc(O)cc1)C(N)=O)C(C)C", "note": "[HBP-1, reference compound] (H-SPRGDLAVLGHKY-NH2; N-terminus and C-terminus assumed)", "values": [{"measurement": "IC50", "setting": "HNO97 cells [1]", "result": 45.1, "unit": "nM"}]}, {"molecule": "^177Lu-DOTA-SFPF10: ^177Lu-DOTA-labeled SFPF-10 ({DOTA}-GRCTFRGDKMQLCYPD; disulfide 3-13 (inferred); also: DOTA loaded with 177Lu)", "values": [{"measurement": "binding of ^177Lu-DOTA-labeled peptide (kinetics)", "setting": "HNO97 cells [2]", "result": "up to 23%"}]}, {"molecule": "C[C@@H](O)[C@@H]1NC(=O)[C@H](CCCCN)NC(=O)[C@@H](Cc2c[nH]c3ccccc23)NC(=O)[C@H](Cc2ccc(O)cc2)NC(=O)[C@@H](NC(=O)[C@@H](Cc2ccccc2)NC(=O)CN2CCN(CC(=O)O)CCN(CC(=O)O)CCN(CC(=O)O)CC2)CSSC[C@@H](C(=O)N[C@H](CO)[C@@H](C)O)NC1=O", "note": "[DOTATOC, DOTA(0)-Phe(1)-Tyr(3))octreotid, reference compound]", "values": [{"measurement": "histochemical peptide staining result", "setting": "[3]", "result": "could not observe any specific binding"}]}, {"molecule": "CSCC[C@@H]1NC(=O)[C@H](CCCCN)NC(=O)[C@H](CC(=O)O)NC(=O)CNC(=O)[C@H](CCCNC(=N)N)NC(=O)[C@H](Cc2ccccc2)NC(=O)[C@H]([C@@H](C)O)NC(=O)[C@@H](NC(=O)[C@H](CCCNC(=N)N)NC(=O)CN)CSSC[C@@H](C(=O)N[C@@H](Cc2ccc(O)cc2)C(=O)N2CCC[C@H]2C(=O)N[C@@H](CC(=O)O)C(=O)O)NC(=O)[C@H](CC(C)C)NC(=O)[C@H](CCC(N)=O)NC1=O", "note": "[SFPF-10] (H-GRCTFRGDKMQLCYPD-OH; disulfide 3-13; N-terminus and C-terminus assumed)", "values": [{"measurement": "IC50", "setting": "HNO97 cells [1]", "result": 18, "unit": "nM"}]}, {"molecule": "^177Lu-DOTA-SFLAP3K: ^177Lu-DOTA-labeled SFLAP3K ({DOTA}-GRCTGRGDLGRLKCYPD; disulfide 3-14; also: DOTA loaded with 177Lu)", "values": [{"measurement": "cellular uptake of ^177Lu-DOTA-labeled peptide compared with ^177Lu-DOTA-SFLAP3", "setting": "Capan-2 cells; 10 and 60 min", "result": "did not result in an increased cellular uptake"}, {"measurement": "efflux (released into the culture medium)", "setting": "Capan-2 cells; during 4 hours following 60 min exposure", "result": 50, "unit": "%"}]}, {"molecule": "biotinylated PEG(12)-SFITGv6: biotinylated PEG(12)-SFITGv6 peptide for histochemical staining (GRCTFRGDLMQLCYPD; disulfide 3-13; also: biotinylated PEG(12) label, site not given here)", "values": [{"measurement": "histochemical peptide staining result", "setting": "[3]; listed as biotin-labeled SFITGv6", "result": "strong and homogenous tumor cell-specific binding"}, {"measurement": "histochemical peptide staining result", "setting": "[3]; listed as biotinylated SFITGv6", "result": "specific, strong and homogeneous binding"}]}, {"molecule": "B1", "values": [{"measurement": "IC50", "setting": "[4]", "result": 6.2, "unit": "nM"}]}, {"molecule": "B2", "values": [{"measurement": "IC50", "setting": "[4]", "result": 0.76, "unit": "nM"}]}, {"molecule": "B3", "values": [{"measurement": "IC50", "setting": "[4]", "result": 2.1, "unit": "nM"}]}]}
